In patent US10774053B2, “HIV protease inhibitors” (Gilead Sciences, Inc., priority 2017, dated 2020) one finds EC50 data, which are given here for 44 compounds.

The test system of the assay is HIV-1 (IIIB) in MT-4 cells. In words: microbe, parasite or virus in culture. Format: cell-based. The following applies: Human immunodeficiency virus 1, IIIB. The method, then: Compounds were serially diluted (1:3) in DMSO on 384-well polypropylene plates and further diluted 200-fold into complete RPMI media (10% FBS, 1% P/S) using the Biotek Micro Flow and Agilent ECHO acoustic dispenser. Each plate contained up to 8 test compounds, with negative (No Drug Control) and 5 uM AZT positive controls. MT-4 cells were pre-infected with 10 uL of either RPMI (mock-infected) or a fresh 1:250 dilution of an HIV-1 (IIIB) concentrated virus stock. Infected and uninfected MT-4 cells were further diluted in complete RPMI media and added to each plate using a Micro Flow dispenser. After 5 days incubation in a humidified and temperature controlled incubator (37° C.), Cell Titer Glo (Promega) was added to the assay plates to quantify the amount of luciferase.

The mark [1] stands for this setting: MT4, MT-4 cells, HIV-1, read-out: MT4 EC50.

Read-outs that look alike come from different tables or passages of the source.

What is called EC50 is the concentration at which the effect is half-maximal. Regarding `CC(C)(C[C@]1(c2ccc(-c3cnn(C4CC4)n3)cc2)NC(=N)N([C@H](COC(=O)NC2(C(F)(F)F)CC2)c2ccc(Cl)c(-c3ncnn3C3CC3)c2)C1=O)C(F)(F)F` [Compound 159], the EC50 under setting [1] worked out at 10.9 nM. Still for that read-out and setting: the figure for `CN(C)C(=O)OC[C@H](c1ccc(Cl)c(-c2nccs2)c1)N1C(=N)N[C@@](c2cc(F)cc(F)c2)(C2CC2)C1=O` [Compound 5] is 5710 nM; for `CN(C)C(=O)OC[C@H](c1ccc(Cl)c(-c2ncn[nH]2)c1)N1C(=N)N[C@](CC(C)(C)C)(c2ccc(-c3cnn(C(F)F)c3)cc2)C1=O` [Compound 81] it is 31.6 nM; for `CC1CCN1C(=O)OC[C@H](c1ccc(Cl)c(-c2ncn[nH]2)c1)N1C(=N)N[C@](CC(C)(C)C)(c2ccc(-c3cnn(C(F)F)c3)cc2)C1=O` (some centres unmarked) [Compound 88] it is 24.3 nM.

In the case of `CC(C)(C)C[C@]1(c2ccc(-c3cnn(C(F)F)c3)cc2)NC(=N)N([C@H](COC(=O)NC2CC2)c2ccc(Cl)c(-c3ncn[nH]3)c2)C1=O` [Compound 19], the EC50 under setting [1] was determined as 49.9 nM. Same read-out and setting: under `[H]/N=C1\N[C@](CC(C)(C)C)(c2ccc(-c3cnn(C(F)F)c3)cc2)C(=O)N1[C@H](COC(N)=O)c1ccc(Cl)c(-c2c[nH]cn2)c1` [Compound 29] stands 228 nM; under `CC(C)(C)C[C@]1(c2ccc(-c3cnn(C(F)F)c3)cc2)NC(=N)N([C@H](COC(=O)NC2(C)CC2)c2ccc(Cl)c(-n3cnnn3)c2)C1=O` [Compound 266], 57.4 nM. With `CC(C)(C)C[C@]1(c2ccc(-c3cnn(C(F)F)c3)cc2)NC(=N)N([C@H](COC(=O)N(CC(F)F)C2CC2)c2ccc(Cl)c(-c3ncn[nH]3)c2)C1=O` [Compound 80], under setting [1], the EC50 was 28.8 nM. Turning to `CC(C)(C)C[C@]1(c2ccc(-c3cnn(C(F)F)c3)cc2)NC(=N)N([C@H](COC(=O)NC2(C)CC2)c2ccc(Cl)c(-c3ccccn3)c2)C1=O` [Compound 47], the EC50 under setting [1] was 60.9 nM. With `CC(C)(C[C@]1(c2ccc(-c3cnn(C4CC4)n3)cc2)NC(=N)N([C@H](COC(=O)NCC(F)(F)F)c2ccc(Cl)c(-c3ncnn3C(F)F)c2)C1=O)C(F)(F)F` [Compound 156], the EC50 (MT4, read-out: MT4 EC50 (nM)) is 11.1 nM.

For the compound `CC(C)(C)C[C@]1(c2ccc(-c3ccccn3)cc2)NC(=N)N([C@H](COC(=O)NC2(C(F)(F)F)CC2)c2cc(F)c(Cl)c(-n3ncnc3C(F)F)c2)C1=O` [Compound 193], the EC50 under setting [1] came out at 88.3 nM. The same measure, in the same setting: the figure for `CC(C)(C)C[C@]1(c2ccc(-c3cnn(C(F)F)c3)cc2)NC(=N)N([C@H](COC(=O)N2CC(C)(F)C2)c2ccc(Cl)c(-c3ncn[nH]3)c2)C1=O` [Compound 76] is 34.8 nM; for `CC(C)(C)C[C@]1(c2ccc(C(F)(F)F)cc2)NC(=N)N([C@H](COC(=O)NC2(C(F)(F)F)CC2)c2ccc(Cl)c(-n3ncnc3C(F)F)c2)C1=O` [Compound 373] it is 49.7 nM; for `CC(C)(C)C[C@]1(c2ccc(-c3cnn(C(F)F)c3)cc2)NC(=N)N([C@H](COC(=O)N[C@@H]2CC23CC3)c2ccc(Cl)c(-n3ncnc3C(F)F)c2)C1=O` [Compound 341] it is 8.54 nM. For the compound `C[C@H](NC(=O)OC[C@H](c1ccc(Cl)c(-n2ncnc2C(F)F)c1)N1C(=N)N[C@](CC(C)(C)C)(c2ccn3nccc3c2)C1=O)C(F)(F)F` [Compound 367], the EC50 under setting [1] was 19 nM. As for `CC(C)(C)C[C@]1(c2ccc(-c3cnn(C(F)F)c3)cc2)NC(=N)N([C@H](COC(=O)Nc2ccccc2)c2ccc(Cl)c(-n3ncnc3C(F)F)c2)C1=O` [Compound 180], the EC50 (MT4, read-out: MT4 EC50 (nM)) came to 23.7 nM. As for `[H]/N=C1\N[C@](CC(C)(C)C)(c2ccc(-c3cnn(C(F)F)c3)cc2F)C(=O)N1[C@H](COC(=O)NC1CC1)c1ccc(Cl)c(-c2ncccc2C)c1` [Compound 12], the EC50 under setting [1] turned out to be 22.2 nM.

With `CC(C)(C)C[C@]1(c2ccc(-c3cnn(C(F)F)c3)cc2)NC(=N)N([C@H](COC(=O)N(CC(F)F)C2CC2)c2ccc(Cl)c(-n3cncn3)c2)C1=O` [Compound 376], the EC50 under setting [1] was 12 nM. In the case of `CC(C)(C)C[C@]1(c2ccc(-c3ncccn3)cc2F)NC(=N)N([C@H](COC(=O)NC2(C(F)(F)F)CC2)c2ccc(Cl)c(-c3ncn[nH]3)c2)C1=O` [Compound 112], the EC50 under setting [1] came out at 40.4 nM. Same read-out and setting: under `CC(C)(C)C[C@]1(c2ccc(-c3cnn(C4CC4)c3)cc2)NC(=N)N([C@H](COC(=O)NCC(F)(F)F)c2ccc(Cl)c(-n3ncnc3C(F)F)c2)C1=O` [Compound 221] stands 15.4 nM; under `Cn1ccc(-c2ccc([C@@]3(CC(C)(C)C)NC(=N)N([C@H](COC(=O)NC4(C(F)(F)F)CC4)c4ccc(Cl)c(-n5ncnc5C(F)F)c4)C3=O)cc2)n1` [Compound 206], 6.74 nM; under `CC(C)(F)C[C@]1(c2ccc(-c3cnn(C4CC4)c3)cc2F)NC(=N)N([C@H](COC(=O)NC(C)(C)C(F)F)c2ccc(Cl)c(-c3ncnn3C(F)F)c2)C1=O` [Compound 133], 35.1 nM. Still for that read-out and setting: under `Cn1ccc(-c2ccc([C@@]3(CC(C)(C)C)NC(=N)N([C@H](COC(=O)NCC(F)(F)F)c4ccc(Cl)c(-n5ncnc5C(F)F)c4)C3=O)cc2)n1` [Compound 297] stands 10.3 nM; under `CC(C)(C)C[C@]1(c2ccc(-c3cnn(C(F)F)c3)cc2)NC(=N)N([C@H](CO)c2ccc(Cl)c(-c3ncnn3C3CC3)c2)C1=O` [Compound 46], 37.6 nM. The same measure, in the same setting: the figure for `C[C@H](NC(=O)OC[C@H](c1ccc(Cl)c(-n2ncnc2C(F)F)c1)N1C(=N)N[C@](CC(C)(C)C)(c2ccc(-c3cnn(C4CC4)n3)cc2)C1=O)C(F)(F)F` [Compound 230] is 7.62 nM; for `CC(C)(C)C[C@]1(c2ccc(-c3ncccn3)cc2)NC(=N)N([C@H](COC(=O)NC(C)(C)C(F)F)c2ccc(Cl)c(-n3ncnc3C(F)F)c2)C1=O` [Compound 188] it is 9.9 nM. In the case of `C[C@H](NC(=O)OC[C@H](c1ccc(Cl)c(-n2ncnc2C(F)F)c1)N1C(=N)N[C@](CC(C)(C)C)(c2ccc(-c3cnn(C4CC4)c3)c(F)c2)C1=O)C(F)(F)F` [Compound 314], under setting [1], the EC50 turned out to be 8.19 nM. Same read-out and setting: the figure for `CC(C)(C)C[C@]1(c2ccc(-c3cnn(C(F)F)c3)cc2)NC(=N)N([C@H](COC(=O)N2CC(F)(F)C2)c2ccc(Cl)c(-n3cccn3)c2)C1=O` [Compound 261] is 29 nM. The same measure, in the same setting: the figure for `CC1(NC(=O)OC[C@H](c2ccc(Cl)c(-n3cccn3)c2)N2C(=N)N[C@](CC(C)(C)C(F)(F)F)(c3ccc(-c4cnn(C5CC5)c4)cc3)C2=O)CC1` [Compound 324] is 27.8 nM.

Consider `CC(C)(C)C[C@]1(c2ccc(-c3ncccn3)cc2F)NC(=N)N([C@H](COC(=O)NC(C)(C)C(F)(F)F)c2ccc(Cl)c(-n3ncnc3C(F)F)c2)C1=O` [Compound 198], for which, under setting [1], the EC50 came to 11.5 nM. Same read-out and setting: under `CC(C)(C)C[C@]1(c2ccc(-c3cnn(C(F)F)c3)cc2)NC(=N)N([C@H](COC(=O)NC2CC2)c2ccc(Cl)c(-c3cc[nH]n3)c2)C1=O` [Compound 24] stands 68.2 nM.

As for `Cn1ccc(-c2ccc([C@@]3(CC(C)(C)C)NC(=N)N([C@H](COC(=O)NC4(C(F)(F)F)CC4)c4ccc(Cl)c(-n5ncnc5C(F)F)c4)C3=O)c(F)c2)n1` [Compound 210], the EC50 under setting [1] was determined as 6.94 nM.

Regarding `CC(C)(C)C[C@]1(c2ccc(-c3ccn(C4CC4)n3)cc2F)NC(=N)N([C@H](COC(=O)NC2(C(F)(F)F)CC2)c2ccc(Cl)c(-n3ncnc3C(F)F)c2)C1=O` [Compound 215], the EC50 under setting [1] is 18.5 nM. In the case of `CC(C)(C)C[C@]1(c2ccc(-c3cn(C4CC4)nn3)cc2)NC(=N)N([C@H](COC(=O)NC2(C(F)(F)F)CC2)c2ccc(Cl)c(-c3ncnn3C(F)F)c2)C1=O` [Compound 137], under setting [1], the EC50 was found to be 19.5 nM. Same read-out and setting: under `CC(C)(C)C[C@]1(c2ccc(-c3ccc(C(F)F)nc3)cc2F)NC(=N)N([C@H](COC(=O)NC2(C(F)(F)F)CC2)c2ccc(Cl)c(-n3ncnc3C(F)F)c2)C1=O` [Compound 279] stands 23.5 nM; under `CC(C)(C)C[C@]1(c2ccc(-c3cnn(C(F)F)c3)cc2)NC(=N)N([C@H](COC(=O)NC2COC2)c2ccc(Cl)c(-c3ncn[nH]3)c2)C1=O` [Compound 94], 341 nM. Same read-out and setting: under `CC(C)(C)C[C@]1(c2ccc(-c3cnn(C(F)F)c3)cc2)NC(=N)N([C@H](COC(=O)NC2CC2)c2ccc(Cl)c(-c3nc(Cl)c(Cl)[nH]3)c2)C1=O` [Compound 23] stands 70.4 nM.

For `CC(C)(C)C[C@]1(c2ccc(-c3cnccn3)cc2)NC(=N)N([C@H](COC(=O)NC2(C)CC2)c2ccc(Cl)c(-c3ncn[nH]3)c2)C1=O` [Compound 33], the EC50 under setting [1] was 37.2 nM. On the same count and under the same terms, the figure for `CC(C)(C)C[C@]1(c2ccc(-c3cnn(C(F)F)c3)cc2)NC(=N)N([C@H](COC(=O)NC2(C)CC2)c2ccc(Cl)c(-n3ccnn3)c2)C1=O` [Compound 260] is 32.4 nM; for `Cc1ncn(-c2cc([C@@H](COC(=O)NC3(C)CC3)N3C(=N)N[C@](CC(C)(C)C)(c4ccc(-c5cnn(C(F)F)c5)cc4)C3=O)ccc2Cl)n1` [Compound 238] it is 156 nM. Consider `CC(C)(C)C[C@]1(c2ccc(-c3cnn(C(F)F)c3)cc2)NC(=N)N([C@H](COC(=O)N(CC(F)(F)F)C2CC2)c2ccc(Cl)c(-c3ncn[nH]3)c2)C1=O` [Compound 95], for which the EC50 under setting [1] was found to be 30.4 nM. On to `C[C@@H](CC#N)C[C@]1(c2ccc(-c3cnn(C(F)F)c3)cc2)NC(=N)N([C@H](COC(=O)NC2(C(F)(F)F)CC2)c2ccc(Cl)c(-n3ncnc3C(F)F)c2)C1=O` (single isomer, unassigned) [Compound 346], for which the EC50 under setting [1] came to 31.9 nM.

In the case of `CC(C)(C)C[C@]1(c2ccc(-c3cnn(C(F)F)c3)cc2)NC(=N)N([C@H](COC(=O)NC2CC2)c2ccc(Cl)c(-n3cncn3)c2)C1=O` [Compound 235], the EC50 under setting [1] was 9.61 nM. On the same count and under the same terms, under `C[C@H](NC(=O)OC[C@H](c1ccc(Cl)c(-c2ncnn2C(F)F)c1)N1C(=N)N[C@](CC(C)(C)C2CC2)(c2ccc(-c3cnn(C4CC4)n3)cc2)C1=O)C(F)(F)F` [Compound 150] stands 9.92 nM.
